Measurements reported in patent EP1136472A1, “ARYL- AND HETEROARYLAMIDES OF CARBOALKOXYSULFANILIC ACIDS” (priority 1998, dated 2000).

Columns and labels:
[1] = system: alanine-aminotranspherase (AlAT); assay: Hepatoprotective activity, CCl4 liver damage in rats; assay type: in vivo
Method: CCl4 dissolved in 50% olive oil (1 ml/kg) was subcutaneously administrated to rats. Test substances were administrated perorally in a dose of 20 mg/kg 30 minutes before and 7 hours after the CCL4 administration. The activity of alanine-aminotranspherase (AlAT), which is a marker enzyme of liver parenchyma damage, was assessed twenty-four hours later. Reducing of enzyme amount by more than 30% relative to the control group was considered as evidence of hepatoprotective properties of the substance. Vitamin E in a dose of 100 mg/kg was used as a reference agent.

[2] = system: C.trachomatis D323; assay: Antichlamydial activity in infected cell culture (McCoy and L929); assay type: cell-based, Chlamydia trachomatis; conditions: 100 mg/l
Method: The antichlamydial activity of the claimed compounds was studied in respect to C.trachomatis […], which is a standard strain contained in the collection of the department of microbiology of St. Petersburg State Pavlov Medical University. […] Cell cultures McCoy and L929 obtained from the Institute of Cytology of RAS were used in this work. Cells were grown in flasks made of neutral glass in the medium RPMI-1640 containing 10% of fetal calf serum. The test was performed in flat-bottom flasks made of glass (non-toxic), that were supplied with cover glasses. The cells were introduced into the medium in the final concentration of 1x10^6 cell/ml. […] Simultaneously, tested compounds in a final concentration of 100 mg/l were added to the cells. The sample was centrifuged at 2400 G for 60 minutes at a room temperature and incubated at 37°C for 2 hours. […] The samples were doubled using the medium without cycloheximide so as to exclude its effect on the investigated compounds. The samples were incubated for 48 hours in CO2-incubator. The controls included: • 1. Control of cell culture • 2. Control of action of solvents • 3. Control of action of chlamydia in absence of any compounds • 4. […] Control of the tested compounds as to toxicity in respect to the cell culture. Evaluation of the results was carried out by the way of determination of chlamydial cytoplasmatic inclusions (CPI) that was conducted by the method of immunofluorescence (MicroTrack Chlamydia trachomatis Direct Specimen Test), and by the way of determination of chlamydia antigens that was conducted by means of CylaMonoScreen (Russian-British Joint Venture 66 Regent's Parc Road London NW1 7SX). The effect of the action of compound was determined by analysis of the monolayer state and number of cells with CPI when compared with the control (cell culture infected with C.trachomatis […]); in doing so, the number of unchanged cells, that were counted in 100 visual fields obtained using the eyepiece-micrometer, was taken into consideration.

[3] = system: Human's platelet aggregation; assay: Antiaggregational properties, ADP-induced platelet aggregation in platelet-rich plasma; assay type: cell-based; conditions: adenosine diphosphate 2.5 µmol/l
Method: Human's platelet aggregation was investigated in plasma of healthy 50±3 years donors that was enriched by thrombocytes, by means of aggregometer FRM-1. The substance under investigation was added to blood plasma samples (100 µg/ml) before inducing aggregation by means of adenosine diphosphate (2.5 µmol/l). Magnitude of the maximum non-reversible platelet aggregation in the control samples (solvent) was adopted as 100%, and that in tested samples was counted as percentage compared to the control. Inhibition of the aggregation by more than 50% at the given concentration was evaluated as meaningful inhibition. Adenosine (5 µg/ml) and aspirin (9 µg/ml), that inhibit aggregation at these concentrations by 100%, were utilized as reference agents.

[4] = system: Herpes Simplex virus of the type I (HSV-I /Leningrad/248/88); assay: Antiviral effect on Herpes Simplex virus (cytopathogenic action on Vero cells); assay type: cell-based; conditions: compound concentration of 100 µg/ml; for Quantity of the unchanged cells: number of cells in 100 visual fields, after 36 hours; for percentage of protection: protection of cells from virus as compared to the control of cell culture
[5] = assay type: in vivo; conditions: mice, observed 72 hours, 300 was the maximally utilized
Method: Tested substance was introduced perorally (in dose of 300 mg/kg) through a gastric tube or intraperitoneally (in dose of 100 mg/kg) to no-breed white mice with mass 18-20 g (each tested group consisted of 3 males and 3 females). Then the mouse state was observed during 72 hours. Absence of symptoms characteristic of toxic effects, or absence of animal death during the given time allows to make a conclusion that the toxicity of the tested substance is low.

[6] = system: Mycobacterium tuberculosis H37RV; assay: Antimicrobial action, serial dilution method; assay type: cell-based; conditions: 72-hour cultivation at 37°C

CCCCCCOC(=O)Nc1ccc(S(=O)(=O)Nc2ccccc2C)cc1 [XXIX, Carbohexoxysulfanylic acid (2-toluyl)amide]
% of reducing AlAT ([1]; perorally 20 mg/kg 30 minutes before and 7 hours after CCl4, AlAT twenty-four hours later, relative to the control group): -36%
activity against chlamydia (in words) [2]: marked biological activity against chlamydia
percentage of cell protection from infection ([2]; 48 hours): 55%
Number of unchanged cells ([2]; counted in 100 visual fields, 48 hours): 4.400
% of inhibition ([3]; 100 µg/ml): 33.3±8.2%
Quantity of the unchanged cells [4]: 6000
percentage of protection [4]: 60%

CCCCOC(=O)Nc1ccc(S(=O)(=O)Nc2ccc([N+](=O)[O-])cc2)cc1 [VII, Carbobutoxysulfanylic acid (4-nitrophenyl)amide]
Maximal tolerable dose: Concentration of tested compounds at oral introducing [5]: 300 mg/L
Quantity of the unchanged cells [4]: 8000
percentage of protection [4]: 80%

Nc1ncnc2c1ncn2[C@@H]1O[C@H](CO)[C@@H](O)[C@H]1O [Adenosine]
inhibition at 5 µg/mL ([3]; Homo sapiens, Platelet, 5 µg/ml): 100%

CC(=O)Oc1ccccc1C(=O)O [Aspirin, aspirin]
inhibition at 9 µg/mL ([3]; Homo sapiens, Platelet, 9 µg/ml): 100%

Rifampycin
MIC [6]: 0.05 µg/mL

Vitamin E [reference compound]
% of reducing AlAT ([1]; Vitamin E in a dose of 100 mg/kg, reference agent): -30%
